Assay results published in PMC5985834, “A Testosterone Metabolite 19-Hydroxyandrostenedione Induces Neuroendocrine Trans-Differentiation of Prostate Cancer Cells via an Ectopic Olfactory Receptor” (Frontiers in Oncology, 2018).
Like-named read-outs stand apart in the source and are kept apart here. Where a SMILES comes first, the peptide text is derived from it. [ ]: non-standard residue; d: D form.

How the values were obtained:
OR51E2 [1] = target: T1, OR51E2 (Homo sapiens, UniProt Q9H255); assay: cAMP CRE-luciferase reporter assay in Hana3A cells; format: cell-based; settings: agonist, M10d medium, read-out: EC50 (potency) /
T1 construct: OR51E2 plasmid transiently transfected into Hana3A cells with CREB-luciferase reporter
T1 sequence (Q9H255 1-320): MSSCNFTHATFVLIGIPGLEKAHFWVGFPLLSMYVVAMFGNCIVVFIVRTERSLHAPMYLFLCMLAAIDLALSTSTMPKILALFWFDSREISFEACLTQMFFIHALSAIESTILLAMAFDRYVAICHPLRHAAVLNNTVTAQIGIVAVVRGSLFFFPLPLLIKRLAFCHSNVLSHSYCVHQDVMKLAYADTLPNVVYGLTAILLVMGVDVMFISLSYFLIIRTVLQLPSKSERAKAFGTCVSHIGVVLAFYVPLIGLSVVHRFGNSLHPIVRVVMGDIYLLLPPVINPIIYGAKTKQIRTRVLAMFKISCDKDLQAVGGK

OR51E2 [2] = target: T1, OR51E2; assay: cAMP CRE-luciferase reporter assay in Hana3A cells; format: cell-based; settings: agonist, M10d medium, max conc. 10 µM, below the EC50, unreliable
From the text: cAMP CRE-luciferase reporter assay in Hana3A cells on OR51E2

Structure (SMILES): O=C1CCCN1 [2-Pyrrolidinone]
- EC50 (OR51E2 [1]; max conc. 100 µM): 1.9 nM

Structure (SMILES): C[C@]12CC[C@H]3[C@@H](CCC4=CC(=O)CC[C@@]43CO)[C@@H]1CCC2=O [19-OH AD, 19-hydroxyandrost-4-ene-3,17-dione]
- EC50 (OR51E2 [1]; max conc. 10 µM): 0.15 nM

Structure (SMILES): COc1ccc(NC=O)c(C(=O)CCNC(C)=O)c1 [AFMK]
- EC50 (OR51E2 [1]; max conc. 3.16 mM): 12000 nM

Structure (SMILES): C[C@@H](N)C(=O)N[C@H](C)C(=O)O [D-Alanyl-D-alanine] (H-[dA]-[dA]-OH)
- EC50 (OR51E2 [1]; max conc. 3.16 mM): 14000 nM

Structure (SMILES): C[C@]12CC[C@@H]3c4ccc(O)cc4CC[C@H]3[C@@H]1C[C@@H](O)[C@@H]2O [Estriol]
- EC50 (potency) / (OR51E2 [2]): 53000 nM

Structure (SMILES): O=C(O)C(=O)CO [Hydroxypyruvic acid]
- EC50 (OR51E2 [1]; max conc. 316 µM): 420 nM

Structure (SMILES): O=C(O)[C@@H](O)CO [L-Glyceric acid]
- EC50 (OR51E2 [1]; max conc. 1 mM): 1.9 nM

Structure (SMILES): CC(=O)N[C@@H](CCC(=O)O)C(=O)O [N-Acetylglutamic acid]
- EC50 (OR51E2 [1]; max conc. 10 µM): 0.23 nM

Structure (SMILES): CCCCCCCCCCCCCCCC(=O)O [Palmitic acid]
- EC50 (OR51E2 [1]; max conc. 1 mM): 9.8 nM

Structure (SMILES): Oc1ccc(-c2[o+]c3cc(O)cc(O)c3cc2O)cc1 [Pelargonidin]
- EC50 (OR51E2 [1]; max conc. 100 µM): 0.42 nM

Structure (SMILES): COc1cc(CCC(=O)CC(=O)CCc2ccc(O)c(OC)c2)ccc1O [Tetrahydrocurcumin]
- EC50 (OR51E2 [1]; max conc. 316 µM): 570 nM

Structure (SMILES): NC(N)=O [Urea]
- EC50 (OR51E2 [1]; max conc. 10 mM): 23 nM
